The results in this text go back to patent publication US11884660B2, “Substituted oxopyridine derivative” (Bayer Pharma Aktiengesellschaft, priority 2018, dated 2024).

Assay [1] deals with human factor XIa (Homo sapiens (Human), UniProt P03951). Briefly: Measurement of FXIa inhibition (fluorogenic substrate Boc-Glu(OBzl)-Ala-Arg-AMC). Format: biochemical. Particulars: human factor XIa 0.45 nM; 15 min preincubation; 30 min at 22° C.; some as mean values from multiple determinations. The procedure:
a.2) Measurement of FXIa Inhibition
The factor XIa inhibition of the substances according to the invention is determined using a biochemical test system which utilizes the reaction of a peptidic factor XIa substrate to determine the enzymatic activity of human factor XIa. Here, factor XIa cleaves from the peptic factor XIa substrate the C-terminal aminomethylcoumarin (AMC), the fluorescence of which is measured. The determinations are carried out in microtitre plates.
Test substances are dissolved in dimethyl sulphoxide and serially diluted in dimethyl sulphoxide (3000 μM to 0.0078 μM; resulting final concentrations in the test: 50 μM to 0.00013 μM). In each case 1 μl of the diluted substance solutions is placed into the wells of white microtitre plates from Greiner (384 wells). 20 μl of assay buffer (50 mM of Tris/HCl pH 7.4; 100 mM of sodium chloride; 5 mM of calcium chloride; 0.1% of bovine serum albumin) and 20 μl of factor XIa from Kordia (0.45 nM in assay buffer) are then added successively. After 15 min of incubation, the enzyme reaction is started by addition of 20 μl of the factor XIa substrate Boc-Glu(OBzl)-Ala-Arg-AMC dissolved in assay buffer (10 μM in assay buffer) from Bachem, the mixture is incubated at room temperature (22° C.) for 30 min and fluorescence is then measured (excitation: 360 nm, emission: 460 nm). The measured emissions of the test batches with test substance are compared to those of control batches without test substance (only dimethyl sulphoxide instead of test substance in dimethyl sulphoxide), and IC50 values are calculated from the concentration/activity relationships. Activity data from this test are listed in Table B below (some as mean values from multiple independent individual determinations): […]

The target in assay [2] is human plasma kallikrein (Homo sapiens (Human), UniProt P03952). Put plainly: Determination of the plasma kallikrein activity (fluorogenic substrate H-Pro-Phe-Arg-AMC). Format: biochemical. The note with it: human plasma kallikrein 0.6 nM; 15 min preincubation; 30 min at 22° C.; some as mean values from multiple determinations. The procedure: a.1) Determination of the Plasma Kallikrein Activity
human plasma kallikrein, sequence (P03952 391-638): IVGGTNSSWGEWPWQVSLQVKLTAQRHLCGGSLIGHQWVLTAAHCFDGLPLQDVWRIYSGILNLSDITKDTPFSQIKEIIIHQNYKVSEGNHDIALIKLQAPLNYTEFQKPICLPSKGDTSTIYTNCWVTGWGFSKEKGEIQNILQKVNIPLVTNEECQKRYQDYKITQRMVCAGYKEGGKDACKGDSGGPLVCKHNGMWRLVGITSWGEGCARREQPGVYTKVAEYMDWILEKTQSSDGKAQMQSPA
human plasma kallikrein, sequence (P03952 20-390 partner): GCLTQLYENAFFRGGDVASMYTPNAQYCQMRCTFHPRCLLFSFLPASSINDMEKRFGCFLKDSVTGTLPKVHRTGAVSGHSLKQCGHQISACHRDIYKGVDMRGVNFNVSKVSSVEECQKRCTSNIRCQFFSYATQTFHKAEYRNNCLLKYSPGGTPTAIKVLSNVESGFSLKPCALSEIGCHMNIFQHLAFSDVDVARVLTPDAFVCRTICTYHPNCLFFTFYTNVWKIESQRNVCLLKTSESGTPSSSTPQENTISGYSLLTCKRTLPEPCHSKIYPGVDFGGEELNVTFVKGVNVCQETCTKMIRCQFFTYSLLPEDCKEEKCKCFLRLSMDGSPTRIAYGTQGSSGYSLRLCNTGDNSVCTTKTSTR
To determine the plasma kallikrein inhibition of the substances according to the invention, a biochemical test system is used which utilizes the reaction of a peptidic plasma kallikrein substrate to determine the enzymatic activity of human plasma kallikrein. Here, plasma kallikrein cleaves from the peptic plasma kallikrein substrate the C-terminal aminomethylcoumarin (AMC), the fluorescence of which is measured. The determinations are carried out in microtitre plates.
Test substances are dissolved in dimethyl sulphoxide and serially diluted in dimethyl sulphoxide (3000 μM to 0.0078 μM; resulting final concentrations in the test: 50 μM to 0.00013 μM). In each case 1 μl of the diluted substance solutions is placed into the wells of white microtitre plates from Greiner (384 wells). 20 μl of assay buffer (50 mM Tris/HCl pH 7.4; 100 mM sodium chloride solution; 5 mM of calcium chloride solution; 0.1% of bovine serum albumin) and 20 μl of plasma kallikrein from Kordia (0.6 nM in assay buffer) are then added successively. After 15 min of incubation, the enzyme reaction is started by addition of 20 μl of the substrate H-Pro-Phe-Arg-AMC dissolved in assay buffer (10 μM in assay buffer) from Bachem, the mixture is incubated at room temperature (22° C.) for 30 min and fluorescence is then measured (excitation: 360 nm, emission: 460 nm). The measured emissions of the test batches with test substance are compared to those of control batches without test substance (only dimethyl sulphoxide instead of test substance in dimethyl sulphoxide), and IC50 values are calculated from the concentration/activity relationships. Activity data from this test are listed in Table A below (some as mean values from multiple independent individual determinations): […]

Counter-ions that a name gives are not always drawn.

human factor XIa, sequence (P03951 388-625): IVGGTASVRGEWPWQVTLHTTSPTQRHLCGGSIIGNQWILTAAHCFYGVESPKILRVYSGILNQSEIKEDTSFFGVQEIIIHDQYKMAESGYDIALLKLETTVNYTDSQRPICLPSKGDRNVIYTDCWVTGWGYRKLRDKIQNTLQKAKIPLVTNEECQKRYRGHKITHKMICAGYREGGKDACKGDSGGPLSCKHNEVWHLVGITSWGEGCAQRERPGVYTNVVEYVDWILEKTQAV
human factor XIa, sequence (P03951 19-387 partner): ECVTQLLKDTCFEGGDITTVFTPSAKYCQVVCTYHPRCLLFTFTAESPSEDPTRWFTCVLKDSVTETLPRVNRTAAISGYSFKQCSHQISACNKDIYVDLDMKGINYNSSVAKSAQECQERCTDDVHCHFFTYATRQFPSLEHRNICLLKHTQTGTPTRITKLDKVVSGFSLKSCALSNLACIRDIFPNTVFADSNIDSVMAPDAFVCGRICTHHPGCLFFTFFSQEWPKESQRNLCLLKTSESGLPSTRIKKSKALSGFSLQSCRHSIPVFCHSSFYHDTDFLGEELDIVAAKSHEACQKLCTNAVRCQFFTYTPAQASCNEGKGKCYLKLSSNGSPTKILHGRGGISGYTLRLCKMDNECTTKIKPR

Broadly, the IC50 is the concentration that inhibits the measured activity by half. Low values mean greater potency in that assay, high ones weaker potency in that assay. Regarding `COc1cn(C(C(=O)Nc2ccn3ncc(C(N)=O)c3c2)C(C)CCCN)c(=O)cc1-c1cc(Cl)ccc1C#N` (racemic) [Example 1, 5-({6-Amino-2-[4-(5-chloro-2-cyanophenyl)-5-methoxy-2-oxopyridin-1(2H)-yl]-3-methyl-hexanoyl}amino)pyrazolo[1,5-a]pyridine-3-carboxamidetrifluoroacetate], the IC50 in assay [1] is more than 10000 nM; in assay [2], 5.6 nM.

For `COc1cn([C@H](C(=O)Nc2ccn3ncc(C(N)=O)c3c2)C(C)CCCN)c(=O)cc1-c1cc(Cl)ccc1C#N` (single isomer, unassigned) [Example 2, trifluoroacetate], the figures for the IC50 in assay [1] and in assay [2] were more than 2000 nM and 1.8 nM, respectively.

Turning to `COc1cn([C@H](C(=O)Nc2ccn3ncc(C(N)=O)c3c2)C(C)CCCN)c(=O)cc1-c1cc(Cl)ccc1C#N` (single isomer, unassigned) [Example 3, trifluoroacetate], the results for the half-maximal inhibitory concentration (IC50) in assay [1] and in assay [2] were more than 2000 nM and 2.1 nM, respectively.
